Laboratory results reported in US6689773B2, “Uracil substituted phenyl sulfamoyl carboxamides” (BASF Aktiengesellschaft, priority 2000, dated 2004).

Experiments:
Format in all cases: in vivo
[1] = test system: ABUTH, Velvetleaf, Abutilon theophrasti, Medic.; assay: Postemergence herbicidal evaluation (Example 147); conditions: rating scale 0-9, two to three weeks after treatment
Summary of the method: (§1)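 Seedlings grown about two weeks, then sprayed (nozzle at 40 psi) with compound in 80/20 acetone/water plus 1.0% methylated seed oil at about 0.016 to 0.032 kg/ha. Kept in greenhouse; visual injury rated 0-9 versus untreated control two to three weeks after treatment; replicate tests averaged.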

[2] = test system: ALOMY, Blackgrass, Alopecurus myosuroides; assay: Postemergence herbicidal evaluation (Example 147); conditions: rating scale 0-9, two to three weeks after treatment
Summary of the method: as §1

[3] = test system: AMBEL, Ragweed, Common, Ambrosia artemiisifolia, L.; assay: Postemergence herbicidal evaluation (Example 147); conditions: rating scale 0-9, two to three weeks after treatment
Summary of the method: as §1

[4] = test system: CHEAL, Lambsquarters, Chenopodium album, L. Common; assay: Postemergence herbicidal evaluation (Example 147); conditions: rating scale 0-9, two to three weeks after treatment
Summary of the method: as §1

[5] = test system: DIGSA, Crabgrass, (Hairy) L, Digitaria sanguinalis, (L)Scop; assay: Postemergence herbicidal evaluation (Example 147); conditions: rating scale 0-9, two to three weeks after treatment
Summary of the method: as §1

[6] = test system: ECHCG, Barnyardgrass, Echinochloa crusgalli, (L.)Beau; assay: Postemergence herbicidal evaluation (Example 147); conditions: rating scale 0-9, two to three weeks after treatment
Summary of the method: as §1

[7] = test system: GLXMA, Soybean, Glycine max, (L.) Merr.; assay: Postemergence herbicidal evaluation (Example 147); conditions: rating scale 0-9, two to three weeks after treatment
Summary of the method: as §1

[8] = test system: IPOHE, Morningglory, Ivyleaf, Ipomoea hederacea, (L)Jacq.; assay: Postemergence herbicidal evaluation (Example 147); conditions: rating scale 0-9, two to three weeks after treatment
Summary of the method: as §1

[9] = test system: SETVI, Green foxtail, Setaria viridis, (L.)Beau; assay: Postemergence herbicidal evaluation (Example 147); conditions: rating scale 0-9, two to three weeks after treatment
Summary of the method: as §1

[10] = test system: TRZAW, Winter wheat, Tritium Aestivum, L. (Winter); assay: Postemergence herbicidal evaluation (Example 147); conditions: rating scale 0-9, two to three weeks after treatment
Summary of the method: as §1

[11] = test system: XANST, Cocklebur, Xanthium strumariam; assay: Postemergence herbicidal evaluation (Example 147); conditions: rating scale 0-9, two to three weeks after treatment
Summary of the method: as §1

[12] = test system: ZEAMX, Field corn, Zea mays L.; assay: Postemergence herbicidal evaluation (Example 147); conditions: rating scale 0-9, two to three weeks after treatment
Summary of the method: as §1

[13] = test system: ABUTH, Velvetleaf, Abutilon theophrasti, Medic.; assay: Preemergence herbicidal evaluation (Example 148); conditions: rating scale 0-9, two to four weeks after treatment
Summary of the method: (§2)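 Test compound was applied in aqueous acetone to freshly planted cups at an equivalent of about 0.125 to 0.250 kg/ha, before emergence. Ratings, taken after two to four weeks of greenhouse growth, were averaged where a compound was tested more than once.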

[14] = test system: ALOMY, Blackgrass, Alopecurus myosuroides; assay: Preemergence herbicidal evaluation (Example 148); conditions: rating scale 0-9, two to four weeks after treatment
Summary of the method: as §2

[15] = test system: AMBEL, Ragweed, Common, Ambrosia artemiisifolia, L.; assay: Preemergence herbicidal evaluation (Example 148); conditions: rating scale 0-9, two to four weeks after treatment
Summary of the method: as §2

[16] = test system: CHEAL, Lambsquarters, Chenopodium album, L. Common; assay: Preemergence herbicidal evaluation (Example 148); conditions: rating scale 0-9, two to four weeks after treatment
Summary of the method: as §2

[17] = test system: DIGSA, Crabgrass, (Hairy) L, Digitaria sanguinalis, (L)Scop; assay: Preemergence herbicidal evaluation (Example 148); conditions: rating scale 0-9, two to four weeks after treatment
Summary of the method: as §2

[18] = test system: ECHCG, Barnyardgrass, Echinochloa crusgalli, (L.)Beau; assay: Preemergence herbicidal evaluation (Example 148); conditions: rating scale 0-9, two to four weeks after treatment
Summary of the method: as §2

[19] = test system: GLXMA, Soybean, Glycine max, (L.) Merr.; assay: Preemergence herbicidal evaluation (Example 148); conditions: rating scale 0-9, two to four weeks after treatment
Summary of the method: as §2

[20] = test system: IPOHE, Morningglory, Ivyleaf, Ipomoea hederacea, (L)Jacq.; assay: Preemergence herbicidal evaluation (Example 148); conditions: rating scale 0-9, two to four weeks after treatment
Summary of the method: as §2

[21] = test system: SETVI, Green foxtail, Setaria viridis, (L.)Beau; assay: Preemergence herbicidal evaluation (Example 148); conditions: rating scale 0-9, two to four weeks after treatment
Summary of the method: as §2

[22] = test system: TRZAW, Winter wheat, Tritium Aestivum, L. (Winter); assay: Preemergence herbicidal evaluation (Example 148); conditions: rating scale 0-9, two to four weeks after treatment
Summary of the method: as §2

[23] = test system: XANST, Cocklebur, Xanthium strumariam; assay: Preemergence herbicidal evaluation (Example 148); conditions: rating scale 0-9, two to four weeks after treatment
Summary of the method: as §2

[24] = test system: ZEAMX, Field corn, Zea mays L.; assay: Preemergence herbicidal evaluation (Example 148); conditions: rating scale 0-9, two to four weeks after treatment
Summary of the method: as §2

**Q.** For `CC(C)N(C(C)C)S(=O)(=O)NC(=O)c1cc(-n2c(=O)cc(C(F)(F)F)n(C)c2=O)c(F)cc1Cl` [Example 60], which “Postemergence herbicidal rating ABUTH” value ([1]; rate 0.016 kg/ha) is on record?
**A.** The value was 9.0.

**Q.** What about the “Postemergence herbicidal rating ABUTH” value ([1]; rate 0.032 kg/ha) of the same compound?
**A.** Its value is 9.0.

**Q.** And the “Postemergence herbicidal rating ALMOY” value ([2]; rate 0.016 kg/ha)?
**A.** The value was 3.0.

**Q.** What about the “Postemergence herbicidal rating ALMOY” value ([2]; rate 0.032 kg/ha) of the same compound?
**A.** Its value is 3.0.

**Q.** What about the “Postemergence herbicidal rating AMBEL” value ([3]; rate 0.016 kg/ha) of the same compound?
**A.** The value was 9.0.

**Q.** And the “Postemergence herbicidal rating AMBEL” value ([3]; rate 0.032 kg/ha)?
**A.** Its value is 9.0.

**Q.** And the “Postemergence herbicidal rating CHEAL” value ([4]; rate 0.016 kg/ha)?
**A.** The value was 8.0.

**Q.** What about the “Postemergence herbicidal rating CHEAL” value ([4]; rate 0.032 kg/ha) of the same compound?
**A.** Its value is 9.0.

**Q.** What about the “Postemergence herbicidal rating DIGSA” value ([5]; rate 0.016 kg/ha) of the same compound?
**A.** Its value is 6.0.

**Q.** What about the “Postemergence herbicidal rating DIGSA” value ([5]; rate 0.032 kg/ha) of the same compound?
**A.** Its value is 7.0.

**Q.** What about the “Postemergence herbicidal rating ECHCG” value ([6]; rate 0.016 kg/ha) of the same compound?
**A.** Its value is 8.0.

**Q.** And the “Postemergence herbicidal rating ECHCG” value ([6]; rate 0.032 kg/ha)?
**A.** The value was 7.0.

**Q.** And the “Postemergence herbicidal rating GLXMA” value ([7]; rate 0.016 kg/ha)?
**A.** The value was 8.5.

**Q.** And the “Postemergence herbicidal rating GLXMA” value ([7]; rate 0.032 kg/ha)?
**A.** The value was 8.5.

**Q.** What about the “Postemergence herbicidal rating IPOHE” value ([8]; rate 0.016 kg/ha) of the same compound?
**A.** The value was 9.0.

**Q.** What about the “Postemergence herbicidal rating IPOHE” value ([8]; rate 0.032 kg/ha) of the same compound?
**A.** The value was 9.0.

**Q.** And the “Postemergence herbicidal rating SETVI” value ([9]; rate 0.016 kg/ha)?
**A.** Its value is 8.0.

**Q.** What about the “Postemergence herbicidal rating SETVI” value ([9]; rate 0.032 kg/ha) of the same compound?
**A.** The value was 9.0.

**Q.** What about the “Postemergence herbicidal rating TRZAW” value ([10]; rate 0.016 kg/ha) of the same compound?
**A.** The value was 6.0.

**Q.** And the “Postemergence herbicidal rating TRZAW” value ([10]; rate 0.032 kg/ha)?
**A.** Its value is 6.0.

**Q.** What about the “Postemergence herbicidal rating XANST” value ([11]; rate 0.016 kg/ha) of the same compound?
**A.** Its value is 9.0.

**Q.** And the “Postemergence herbicidal rating XANST” value ([11]; rate 0.032 kg/ha)?
**A.** Its value is 9.0.

**Q.** And the “Postemergence herbicidal rating ZEAMX” value ([12]; rate 0.016 kg/ha)?
**A.** Its value is 8.0.

**Q.** What about the “Postemergence herbicidal rating ZEAMX” value ([12]; rate 0.032 kg/ha) of the same compound?
**A.** Its value is 8.0.

**Q.** What about the “Preemergence herbicidal rating ABUTH” value ([13]; rate 0.125 kg/ha) of the same compound?
**A.** Its value is 9.0.

**Q.** And the “Preemergence herbicidal rating ABUTH” value ([13]; rate 0.25 kg/ha)?
**A.** The value was 9.0.

**Q.** And the “Preemergence herbicidal rating ALMOY” value ([14]; rate 0.125 kg/ha)?
**A.** Its value is 0.0.

**Q.** What about the “Preemergence herbicidal rating ALMOY” value ([14]; rate 0.25 kg/ha) of the same compound?
**A.** Its value is 0.0.

**Q.** And the “Preemergence herbicidal rating AMBEL” value ([15]; rate 0.125 kg/ha)?
**A.** The value was 9.0.

**Q.** And the “Preemergence herbicidal rating AMBEL” value ([15]; rate 0.25 kg/ha)?
**A.** Its value is 9.0.

**Q.** What about the “Preemergence herbicidal rating CHEAL” value ([16]; rate 0.125 kg/ha) of the same compound?
**A.** The value was 9.0.

**Q.** What about the “Preemergence herbicidal rating CHEAL” value ([16]; rate 0.25 kg/ha) of the same compound?
**A.** The value was 9.0.

**Q.** What about the “Preemergence herbicidal rating DIGSA” value ([17]; rate 0.125 kg/ha) of the same compound?
**A.** Its value is 6.0.

**Q.** What about the “Preemergence herbicidal rating DIGSA” value ([17]; rate 0.25 kg/ha) of the same compound?
**A.** Its value is 6.0.

**Q.** And the “Preemergence herbicidal rating ECHCG” value ([18]; rate 0.125 kg/ha)?
**A.** The value was 0.0.

**Q.** And the “Preemergence herbicidal rating ECHCG” value ([18]; rate 0.25 kg/ha)?
**A.** Its value is 4.0.

**Q.** What about the “Preemergence herbicidal rating GLXMA” value ([19]; rate 0.125 kg/ha) of the same compound?
**A.** The value was 0.0.

**Q.** What about the “Preemergence herbicidal rating GLXMA” value ([19]; rate 0.25 kg/ha) of the same compound?
**A.** Its value is 6.0.

**Q.** What about the “Preemergence herbicidal rating IPOHE” value ([20]; rate 0.125 kg/ha) of the same compound?
**A.** The value was 7.0.

**Q.** What about the “Preemergence herbicidal rating IPOHE” value ([20]; rate 0.25 kg/ha) of the same compound?
**A.** Its value is 6.0.

**Q.** What about the “Preemergence herbicidal rating SETVI” value ([21]; rate 0.125 kg/ha) of the same compound?
**A.** Its value is 5.0.

**Q.** And the “Preemergence herbicidal rating SETVI” value ([21]; rate 0.25 kg/ha)?
**A.** The value was 9.0.

**Q.** What about the “Preemergence herbicidal rating TRZAW” value ([22]; rate 0.125 kg/ha) of the same compound?
**A.** The value was 0.0.

**Q.** And the “Preemergence herbicidal rating TRZAW” value ([22]; rate 0.25 kg/ha)?
**A.** The value was 0.0.

**Q.** And the “Preemergence herbicidal rating XANST” value ([23]; rate 0.125 kg/ha)?
**A.** Its value is 0.0.

**Q.** And the “Preemergence herbicidal rating XANST” value ([23]; rate 0.25 kg/ha)?
**A.** Its value is 4.0.

**Q.** And the “Preemergence herbicidal rating ZEAMX” value ([24]; rate 0.125 kg/ha)?
**A.** Its value is 0.0.

**Q.** And the “Preemergence herbicidal rating ZEAMX” value ([24]; rate 0.25 kg/ha)?
**A.** Its value is 0.0.
